Source: ChEMBL document CHEMBL1121980, “beta-adrenergic blocking agents. 24. Heterocyclic substituted 1-(aryloxy)-3-[[(amido)alkyl]amino]propan-2-ols” (1982)

Tests used:
Assay type in all cases: functional
Felis catus [1] = species: Felis catus; assay: The compound was evaluated for inhibition of depressor response.; set-up: concentration or dose not given beside the values
Felis catus [2] = assay: In vivo beta adrenoceptor blocking potency was determined by inhibition of tachycardia in cat
Felis catus [3] = species: Felis catus; assay: The compound was evaluated for inhibition of depressor response

Row | Compound | Inhibition (Felis catus [1]) [%] | ED50 (Felis catus [2]) [mg/kg] | Inhibition (Felis catus [3]) [%]
1 | N#Cc1ccccc1OCC(O)CNCCNC(=O)Cc1cc2ccccc2[nH]1 (configuration not stated) | 6 | 0.049 | 
2 | N#Cc1ccccc1OCC(O)CNCCNC(=O)c1ccco1 (configuration not stated) | 28 | 0.272 | 
3 | O=C(NCCNCC(O)COc1cccc2c1OCCO2)c1cccs1 (configuration not stated) | 40 |  | 
4 | N#Cc1ccccc1OCC(O)CNCCNC(=O)Cc1csc(-c2ccc(Cl)cc2)n1 (configuration not stated) | 0 | 0.087 | 
5 | O=C(NCCNCC(O)COc1cccc2c1OCCO2)Nc1ccccc1 (configuration not stated) | 0 | 0.111 | 
6 | NC(=O)c1ccccc1OCC(O)CNCCNC(=O)c1cccs1 (configuration not stated) | 0 | 0.461 | 
7 | O=C(NCCNCC(O)COc1ccccc1)c1cccs1 (configuration not stated) | 28 | 0.104 | 
8 | CC(=O)Nc1ccc(OCC(O)CNC(C)C)cc1 (configuration not stated) [PRACTOLOL] |  | 0.167 | 8
9 | CC(C)NCC(O)COc1cccc2ccccc12 (configuration not stated) [PROPRANOLOL] | 85 | 0.062 | 
